In PMC9814687, “Controlling oncogenic KRAS signaling pathways with a Palladium-responsive peptide” (Communications Chemistry, 2022):

What was measured:
[1] = test system: phospho-ERK1/2 in serum-starved A549 cells; test: Inhibition of ERK1/2 phosphorylation (Western blot, densitometry); assay type: cell-based; settings: 4 h, Western blot with pERK antibodies
Protocol: (§1) All steps were performed on a sterile clean bench Telstar AV-100 at rt. Solutions stored in a fridge were warmed beforehand in a water bath (37 °C). Unless otherwise specified, all incubations were performed in DMEM containing 5% of fetal bovine serum (FBS-DMEM). Cell Culture: A549 cell line was cultured in DMEM (Dulbecco´s modified Eagle´s medium), 5 mM glutamine, penicillin (100 units/mL) and streptomycin (100 units/mL), all from Invitrogen. Proliferating cultures were maintained in a 5% CO2 humidified incubator at 37 °C. For all the experiments, cells were seeded in the corresponding well at the indicated concentration 2 days before treatment. A549 cells were seeded on glass-bottom plates 48 h (150.000 cell/ml) before treatment. […] (10 µM) were added. The metallopeptide was made just before the addition to cells by pre-incubating with metal complexes (1:1) in water for 10 min. After 30 min of incubation with cells, these were washed twice with PBS and replaced with fresh FBS-DMEM to observe under the microscope with adequate filters. Digital pictures of the different samples were taken under identical conditions of gain and exposure. A549 cells were seeded on glass-bottom plates (150.000 cell/ml) 48 h before treatment. […] After two washes with PBS, the cells were lysed in Laemmli buffer containing Tris pH 6,8 1 M, Glycerol, SDS, Bromophenol Blue, and β-mercaptoethanol, and heated at 95 °C for 10 min. The samples were separated by SDS-12.5% polyacrylamide gel and transferred to nitrocellulose membrane, to probed by Western blotting. […] The visualization was performed with ChemiDoc MP imaging system by Biorad, and the processing of the images and densitometry quantification was carried out with ImageLab program.

HeLa cells = test: MTT toxicity assay; settings: long incubation (24 h), up to 100 µM
Protocol: cells as follows: 100,000 cells per well were seeded in 96 well plates two days before treatment with different
concentrations of the peptides/metal. After 24 h of incubation, HEPES containing 3-(4,5-dimethylthiazol-2-
yl)-2,5-diphenyl tetrazolium bromide (MTT) was added to the cell culture medium to a final concentration of
0.5 mg/ml. Cells were then incubated for 4 h to allow the formation of formazan precipitates by metabolically
active cells. A detergent solution of 10% SDS (sodium dodecyl sulphate) and 0.01 M HCl was then added,
and the plate was incubated overnight at room temperature to allow the solubilization of the precipitates.
The quantity of formazan in each well (directly proportional to the number of viable cells) was measured by
recording changes in absorbance at 570 nm in a microtiter plate reading spectrophotometer (Tecan Infinite
Toxicity assay. HeLa cells were incubated with peptide, metallopeptide and palladium at
different concentrations, for 24 h at 37 °C. Then, the cells were washed two time with PBS before carry ing
out the MTT assay. Data are mean +/- SEM for experimental repeated in two independent times.

[2] = Circular dichroism (α-helical content); assay type: physicochemical; settings: 10% TFE, 25 °C
Protocol: Circular Dichroism was measured on a Jasco-715 coupled with a thermostat Nestlab RTE-111 using a 2 mm Hellma cuvette at 25 °C and the following settings: Acquisition range, 300-195 nm; band width, 2.0 nm; resolution, 0.2 nm; accumulation, 5 scans; sensitivity, 10 mdeg; response time, 0.25 s; speed, 100 nm/min. The spectra are the average of 5 scans and were processed using the “smooth” macro in the program KaleidaGraph (v 3.5 by Synergy Software).
Circular Dichroism. Circular Dichroism was measured on a Jasco-715 coupled with a thermostat Nestlab RTE-111 using a 2 mm Hellma cuvette at 25 °C and the following settings: Acquisition range, 300 -195 nm; band width, 2.0 nm; resolution, 0.2 nm; accumulation, 5 scans; sensitivity, 10 mdeg; response time, 0.25 s; speed, 100 nm/min. The spectra are the average of 5 scans and were processed using the “smooth” macro in the program KaleidaGraph (v 3.5 by Synergy Software).
Fig S3. Left: CD titration experiment.
5 and 10 equivalents of cis-PdCl2(en). The experiments were carried out in 10 mM phosphate buffer pH 7.5, 100 mM of NaCl and 10% TFE, 25 °C. Mean residue molar ellipticity ([ Θ]MRE) was calculated considering the peptide as an 18-mer.
(1 picture or pasted object on this page, not shown here)

A549 cells = test: Cell internalization by fluorescence microscopy; assay type: cell-based; settings: for cellular internalization (intracellular TMR fluorescence), in words: A549 cells, 10 µM, 30 min at 37 °C, DMEM with 5% FBS, washed with PBS, fluorescence microscopy
Protocol: as §1
All images were obtained with an Andor Zyla mounted on a Nikon TiE. LED excitation wavelength 550 nm. Filter cube TRITC-B-000 (Semrock): BP 543/22 nm, […] 593/40 nm, and DM 562 nm. Images were further processed with Image J.

| Compound | levels of ERK phosphorylation, in words [1] | cell viability in MTT assay, in words (HeLa cells) | α-helical content ([2]; from CD band at 222 nm, 20 µM peptide + 1 eq. cis-PdCl2(en), 10 mM phosphate pH 7.5, 100 mM NaCl) | cellular internalization (intracellular TMR fluorescence), in words (A549 cells) | cell localization by fluorescence microscopy (A549 cells; cells incubated with the metallopeptide, authors' reply to reviewers) | mean residue molar ellipticity at 222 nm ([2]; CD, 20 µM peptide, 10 mM phosphate buffer pH 7.5, 100 mM NaCl, calculated for an 18-mer, metallopeptide 30 min after 1 eq. cis-PdCl2(en)) |
| --- | --- | --- | --- | --- | --- | --- |
| NCCN.[Cl][Pd][Cl] [cis-PdCl2(en), reference compound] | failed to induce changes | remains high | – | – | – | – |
| CC[C@H](C)[C@H](NC(=O)CNC(=O)[C@H](Cc1ccccc1)NC(=O)[C@H](Cc1ccccc1)NC(=O)[C@H](CCCNC(=N)N)NC(=O)[C@H](CCCNC(=N)N)NC(=O)CCCCCNC(=O)c1ccc2c(c1)C(=O)OC21c2ccc(N(C)C)cc2Oc2cc(N(C)C)ccc21)C(=O)N[C@@H](Cc1c[nH]cn1)C(=O)N[C@@H](CC(C)C)C(=O)N[C@H](C(=O)N[C@@H](CC(N)=O)C(=O)N[C@@H](Cc1c[nH]cn1)C(=O)N[C@@H](CC(C)C)C(=O)N[C@@H](CCCCN)C(=O)N[C@H](C(=O)N[C@@H](CCC(=O)O)C(=O)N[C@@H](CCC(=O)O)C(=O)NCC(=O)N[C@@H](CC(N)=O)C(N)=O)[C@@H](C)O)[C@@H](C)O [αH-His2[Pd]] | significant decrease | – | about 22% | intense intracellular fluorescence signal | endosomal localization | – |
| TMR-Ahx-RRFFGIHLTNHLKTEEGN [αH-His2] | failed to induce changes | – | – | rather poor internalization | – | ≈ −2200 deg cm^2 dmol^−1 |
